Values after ≈ are worked out from the molar mass of the structure shown.
Experiments:
Format in all cases: functional
Staphylococcus aureus [1] = test: Antibacterial activity against Staphylococcus aureus assessed as bacterial growth inhibition incubated for 24 hrs by broth microdilution method
Staphylococcus aureus [2] = test: Antibacterial activity against methicillin-resistant Staphylococcus aureus assessed as bacterial growth inhibition incubated for 24 hrs by broth microdilution method
Enterococcus faecalis = test: Antibacterial activity against Enterococcus faecalis assessed as bacterial growth inhibition incubated for 24 hrs by broth microdilution method
Staphylococcus aureus [3] = test: Antibacterial activity against Staphylococcus aureus ATCC 25923 assessed as bacterial growth inhibition incubated for 24 hrs by broth microdilution method
Staphylococcus aureus [4] = test: Antibacterial activity against Staphylococcus aureus ATCC 29213 assessed as bacterial growth inhibition incubated for 24 hrs by broth microdilution method
Klebsiella pneumoniae = test: Antibacterial activity against Klebsiella pneumoniae assessed as bacterial growth inhibition incubated for 24 hrs by broth microdilution method
Escherichia coli [5] = test: Antibacterial activity against Escherichia coli assessed as bacterial growth inhibition incubated for 24 hrs by broth microdilution method
Escherichia coli [6] = test: Antibacterial activity against Escherichia coli ATCC 25922 assessed as bacterial growth inhibition incubated for 24 hrs by broth microdilution method
Pseudomonas aeruginosa [7] = test: Antibacterial activity against Pseudomonas aeruginosa assessed as bacterial growth inhibition incubated for 24 hrs by broth microdilution method
Pseudomonas aeruginosa [8] = test: Antibacterial activity against Pseudomonas aeruginosa ATCC 27853 assessed as bacterial growth inhibition incubated for 24 hrs by broth microdilution method
Acinetobacter baumannii = test: Antibacterial activity against Acinetobacter baumannii assessed as bacterial growth inhibition incubated for 24 hrs by broth microdilution method

SMILES | MIC (Staphylococcus aureus [1]) [µM] | MIC (Staphylococcus aureus [2]) [µM] | MIC (Enterococcus faecalis) [µM] | MIC (Staphylococcus aureus [3]) [µM] | MIC (Staphylococcus aureus [4]) [µM] | MIC (Klebsiella pneumoniae) [µM] | MIC (Escherichia coli [5]) [µM] | MIC (Escherichia coli [6]) [µM] | MIC (Pseudomonas aeruginosa [7]) [µM] | MIC (Pseudomonas aeruginosa [8]) [µM] | MIC (Acinetobacter baumannii) [µM]
O=C1c2cccc3c(N4CCN(c5nccc(-n6cncn6)n5)CC4)ccc(c23)C(=O)N1CCO | 545 (≈ 256 µg/mL) | 545 (≈ 256 µg/mL) | 545 (≈ 256 µg/mL) | 68 (≈ 32 µg/mL) | 9 (≈ 4.23 µg/mL) | 545 (≈ 256 µg/mL) | 545 (≈ 256 µg/mL) | 545 (≈ 256 µg/mL) | 545 (≈ 256 µg/mL) | 545 (≈ 256 µg/mL) | 272 (≈ 128 µg/mL)
Cc1ncc([N+](=O)[O-])n1-c1nccc(N(CCO)CCO)n1 | 831 (≈ 256 µg/mL) | 831 (≈ 256 µg/mL) | 831 (≈ 256 µg/mL) | 831 (≈ 256 µg/mL) | 831 (≈ 256 µg/mL) | 415 (≈ 128 µg/mL) | 415 (≈ 128 µg/mL) | 1660 (≈ 512 µg/mL) | 415 (≈ 128 µg/mL) | 415 (≈ 128 µg/mL) | 415 (≈ 128 µg/mL)
Cc1nc2ccccc2n1-c1ccnc(N(CCO)CCO)n1 | 102 (≈ 32 µg/mL) | 204 (≈ 63.9 µg/mL) | 409 (≈ 128 µg/mL) | 102 (≈ 32 µg/mL) | 204 (≈ 63.9 µg/mL) | 204 (≈ 63.9 µg/mL) | 51 (≈ 16 µg/mL) | 817 (≈ 256 µg/mL) | 26 (≈ 8.15 µg/mL) | 102 (≈ 32 µg/mL) | 204 (≈ 63.9 µg/mL)
OCCN(CCO)c1ccnc(-n2ccnc2-c2ccccc2)n1 | 787 (≈ 256 µg/mL) | 1580 (≈ 512 µg/mL) | 787 (≈ 256 µg/mL) | 394 (≈ 128 µg/mL) | 787 (≈ 256 µg/mL) | 787 (≈ 256 µg/mL) | 787 (≈ 256 µg/mL) | 1580 (≈ 512 µg/mL) | 197 (≈ 64.1 µg/mL) | 787 (≈ 256 µg/mL) | 394 (≈ 128 µg/mL)
OCCN(CCO)c1nccc(-n2cnc3cc(Br)ccc32)n1 | 1360 (≈ 514 µg/mL) | 339 (≈ 128 µg/mL) | 679 (≈ 257 µg/mL) | 339 (≈ 128 µg/mL) | 85 (≈ 32.1 µg/mL) | 170 (≈ 64.3 µg/mL) | 1360 (≈ 514 µg/mL) | 1360 (≈ 514 µg/mL) | 339 (≈ 128 µg/mL) | 85 (≈ 32.1 µg/mL) | 170 (≈ 64.3 µg/mL)
CN(CCO)c1nccc(-n2cncn2)n1 | 1160 (≈ 256 µg/mL) | 1160 (≈ 256 µg/mL) | 582 (≈ 128 µg/mL) | 1160 (≈ 256 µg/mL) | 1160 (≈ 256 µg/mL) | 1160 (≈ 256 µg/mL) | 1160 (≈ 256 µg/mL) | 582 (≈ 128 µg/mL) | 291 (≈ 64.1 µg/mL) | 1160 (≈ 256 µg/mL) | 1360 (≈ 300 µg/mL)
Nc1ccc(S(=O)(=O)Nc2ncccn2)cc1 [SULFADIAZINE] | 256 (≈ 64.1 µg/mL) | 256 (≈ 64.1 µg/mL) | 64 (≈ 16 µg/mL) | 129 (≈ 32.3 µg/mL) | 54 (≈ 13.5 µg/mL) | 1020 (≈ 256 µg/mL) | 64 (≈ 16 µg/mL) | 64 (≈ 16 µg/mL) | 31 (≈ 7.76 µg/mL) | 64 (≈ 16 µg/mL) | 64 (≈ 16 µg/mL)
O=C(CCl)N1CCN(c2nccc(-n3cncn3)n2)CC1 | 417 (≈ 128 µg/mL) | 104 (≈ 32 µg/mL) | 417 (≈ 128 µg/mL) | 208 (≈ 64 µg/mL) | 104 (≈ 32 µg/mL) | 104 (≈ 32 µg/mL) | 208 (≈ 64 µg/mL) | 104 (≈ 32 µg/mL) | 104 (≈ 32 µg/mL) | 208 (≈ 64 µg/mL) | 208 (≈ 64 µg/mL)
O=S(=O)(c1ccc(F)cc1)N1CCN(c2nccc(-n3cncn3)n2)CC1 | 658 (≈ 256 µg/mL) | 658 (≈ 256 µg/mL) | 658 (≈ 256 µg/mL) | 165 (≈ 64.3 µg/mL) | 658 (≈ 256 µg/mL) | 658 (≈ 256 µg/mL) | 658 (≈ 256 µg/mL) | 658 (≈ 256 µg/mL) | 329 (≈ 128 µg/mL) | 658 (≈ 256 µg/mL) | 165 (≈ 64.3 µg/mL)
O=C(CCCCl)N1CCN(c2nccc(-n3cncn3)n2)CC1 | 764 (≈ 257 µg/mL) | 382 (≈ 128 µg/mL) | 382 (≈ 128 µg/mL) | 382 (≈ 128 µg/mL) | 764 (≈ 257 µg/mL) | 382 (≈ 128 µg/mL) | 382 (≈ 128 µg/mL) | 382 (≈ 128 µg/mL) | 764 (≈ 257 µg/mL) | 382 (≈ 128 µg/mL) | 382 (≈ 128 µg/mL)
O=C1c2cccc3c(N4CCN(c5nccc(-n6cncn6)n5)CC4)ccc(c23)C(=O)N1C(CO)CO | 512 (≈ 256 µg/mL) | 512 (≈ 256 µg/mL) | 256 (≈ 128 µg/mL) | 64 (≈ 32 µg/mL) | 512 (≈ 256 µg/mL) | 226 (≈ 113 µg/mL) | 512 (≈ 256 µg/mL) | 255 (≈ 128 µg/mL) | 512 (≈ 256 µg/mL) | 512 (≈ 256 µg/mL) | 512 (≈ 256 µg/mL)
OCCN(CCO)c1ccnc(-n2ccnc2)n1 | 1030 (≈ 256 µg/mL) | 1030 (≈ 256 µg/mL) | 1030 (≈ 256 µg/mL) | 1030 (≈ 256 µg/mL) | 2060 (≈ 512 µg/mL) | 1030 (≈ 256 µg/mL) | 1030 (≈ 256 µg/mL) | 2060 (≈ 512 µg/mL) | 514 (≈ 128 µg/mL) | 1030 (≈ 256 µg/mL) | 1030 (≈ 256 µg/mL)
Cc1nccn1-c1ccnc(N(CCO)CCO)n1 | 973 (≈ 256 µg/mL) | 973 (≈ 256 µg/mL) | 973 (≈ 256 µg/mL) | 973 (≈ 256 µg/mL) | 1950 (≈ 512 µg/mL) | 973 (≈ 256 µg/mL) | 973 (≈ 256 µg/mL) | 973 (≈ 256 µg/mL) | 486 (≈ 128 µg/mL) | 973 (≈ 256 µg/mL) | 973 (≈ 256 µg/mL)
CCCc1nccn1-c1ccnc(N(CCO)CCO)n1 | 879 (≈ 256 µg/mL) | 879 (≈ 256 µg/mL) | 879 (≈ 256 µg/mL) | 879 (≈ 256 µg/mL) | 879 (≈ 256 µg/mL) | 379 (≈ 110 µg/mL) | 879 (≈ 256 µg/mL) | 879 (≈ 256 µg/mL) | 879 (≈ 256 µg/mL) | 879 (≈ 256 µg/mL) | 879 (≈ 256 µg/mL)
